The target of test [1] is T1, Zinc finger protein mex-5 (Caenorhabditis elegans, UniProt Q9XUB2).
T1 sequence (Q9XUB2 whole entry): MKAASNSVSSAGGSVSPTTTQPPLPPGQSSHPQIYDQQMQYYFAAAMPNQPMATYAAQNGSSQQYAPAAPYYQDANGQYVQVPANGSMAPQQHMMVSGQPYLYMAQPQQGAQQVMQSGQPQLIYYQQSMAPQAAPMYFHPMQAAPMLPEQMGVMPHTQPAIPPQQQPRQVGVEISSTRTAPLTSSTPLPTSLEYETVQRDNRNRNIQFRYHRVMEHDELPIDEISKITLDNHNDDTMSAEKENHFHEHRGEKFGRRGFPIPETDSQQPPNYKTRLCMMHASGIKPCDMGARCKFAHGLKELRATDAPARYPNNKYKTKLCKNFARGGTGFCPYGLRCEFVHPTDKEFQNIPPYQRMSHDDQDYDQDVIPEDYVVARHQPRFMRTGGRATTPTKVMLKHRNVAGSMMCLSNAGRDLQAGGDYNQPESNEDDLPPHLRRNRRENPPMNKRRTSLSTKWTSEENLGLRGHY
Briefly: potency of MEX-5 RNA-binding blockers – biochemical, C. elegans, fluorescence polarization, dose response (AID 1960). On the technique in general: Fluorescence polarisation rises when a labelled molecule tumbles more slowly, as on binding a larger partner.

In test [2] the target is T2, Endoribonuclease toxin MazF (Escherichia coli K-12, UniProt P0AE70).
T2 sequence (P0AE70 whole entry): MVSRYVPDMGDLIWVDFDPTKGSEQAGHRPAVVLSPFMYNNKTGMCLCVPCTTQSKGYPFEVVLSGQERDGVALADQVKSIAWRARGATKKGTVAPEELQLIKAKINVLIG
Briefly: substrate-only fluorescence increase artefacts – biochemical, single-stranded RNase substrate, counter-screen for MazEF activator project, dose response (AID 588502). The test is classed as functional. For orientation: A counterscreen serves to expose hits that act by an unwanted route or on another target.

Test [3] has as its target T2, Endoribonuclease toxin MazF. Nature of the test: activation of MazEF endoribonuclease cleavage – biochemical, fluorescence, single-stranded RNA substrate, uHTS hits, dose response (AID 588481). The class given is functional.
Test [4] deals with T3, RNA-binding protein pos-1 (Caenorhabditis elegans, UniProt G5EF15).
T3 sequence (G5EF15 whole entry): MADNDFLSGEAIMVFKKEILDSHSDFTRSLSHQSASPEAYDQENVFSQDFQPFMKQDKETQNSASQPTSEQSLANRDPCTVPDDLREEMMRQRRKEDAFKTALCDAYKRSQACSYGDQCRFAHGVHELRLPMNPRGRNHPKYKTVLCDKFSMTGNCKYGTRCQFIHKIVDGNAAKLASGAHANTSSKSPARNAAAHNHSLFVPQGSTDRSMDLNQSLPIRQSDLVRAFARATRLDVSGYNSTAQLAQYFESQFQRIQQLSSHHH
Briefly: disruptors of C. elegans POS-1 RNA interaction – biochemical, fluorescence polarization, dose response (AID 1964).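 Further: purified POS-1 fused to maltose binding protein made in E. coli; potency of compounds blocking POS-1 binding to fluorescent RNA.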

Test [5] deals with T4, Corticotropin-releasing factor receptor 2/Corticotropin-releasing factor-binding protein (Homo sapiens, UniProt P24387+Q13324).
T4 sequence (Q13324 whole entry): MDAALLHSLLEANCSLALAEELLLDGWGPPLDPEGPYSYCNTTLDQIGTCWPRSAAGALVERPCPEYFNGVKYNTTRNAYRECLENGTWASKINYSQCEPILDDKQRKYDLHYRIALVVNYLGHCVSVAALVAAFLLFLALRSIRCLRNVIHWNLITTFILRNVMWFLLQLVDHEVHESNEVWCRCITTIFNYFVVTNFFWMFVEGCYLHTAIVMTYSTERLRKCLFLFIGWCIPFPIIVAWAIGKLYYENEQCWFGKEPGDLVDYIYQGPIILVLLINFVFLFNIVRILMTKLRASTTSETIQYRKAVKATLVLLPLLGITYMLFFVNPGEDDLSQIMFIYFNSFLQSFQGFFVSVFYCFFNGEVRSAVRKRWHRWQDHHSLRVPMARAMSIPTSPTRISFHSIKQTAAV
T4 sequence (P24387 whole entry): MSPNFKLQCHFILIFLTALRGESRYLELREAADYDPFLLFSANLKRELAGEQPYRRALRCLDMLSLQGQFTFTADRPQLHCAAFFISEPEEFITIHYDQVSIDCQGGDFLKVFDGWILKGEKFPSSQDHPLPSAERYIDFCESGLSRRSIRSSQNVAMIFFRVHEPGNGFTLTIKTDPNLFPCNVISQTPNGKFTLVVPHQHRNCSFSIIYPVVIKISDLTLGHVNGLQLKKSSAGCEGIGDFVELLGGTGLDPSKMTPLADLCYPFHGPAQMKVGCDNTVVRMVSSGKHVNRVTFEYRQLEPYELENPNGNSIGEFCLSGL
Briefly: activators of CRF receptor 2 with binding protein – uHTS hits, confirmation (AID 602473). The class given is functional. The following applies: read-out: EC50_Mean.

The target of test [6] is 72 kDa type IV collagenase (Homo sapiens, UniProt P08253). Briefly: Dose Response validation of uHTS RPN11 inhibitor hits using a MMP-2 Fluorescence assay. The test is classed as functional.
Chain of 72 kDa type IV collagenase (P08253 whole entry): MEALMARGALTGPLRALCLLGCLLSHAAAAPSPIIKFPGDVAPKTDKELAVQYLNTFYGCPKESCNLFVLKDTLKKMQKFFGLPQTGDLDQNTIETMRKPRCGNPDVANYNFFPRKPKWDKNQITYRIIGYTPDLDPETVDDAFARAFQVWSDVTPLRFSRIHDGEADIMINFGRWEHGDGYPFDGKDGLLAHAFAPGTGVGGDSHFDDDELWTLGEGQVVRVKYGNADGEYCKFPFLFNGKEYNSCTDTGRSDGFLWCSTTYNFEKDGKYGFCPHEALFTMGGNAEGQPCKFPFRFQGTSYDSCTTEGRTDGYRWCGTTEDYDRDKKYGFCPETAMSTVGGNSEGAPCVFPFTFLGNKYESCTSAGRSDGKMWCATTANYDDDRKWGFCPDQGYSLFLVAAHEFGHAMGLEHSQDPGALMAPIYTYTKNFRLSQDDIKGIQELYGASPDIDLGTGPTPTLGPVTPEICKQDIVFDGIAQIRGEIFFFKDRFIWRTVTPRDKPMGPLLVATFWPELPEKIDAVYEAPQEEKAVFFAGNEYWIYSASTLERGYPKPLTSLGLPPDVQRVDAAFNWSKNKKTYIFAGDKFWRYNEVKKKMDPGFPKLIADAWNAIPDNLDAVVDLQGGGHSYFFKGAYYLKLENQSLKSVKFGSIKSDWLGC
Another test addresses Large T antigen (Simian virus 40, UniProt P03070). The test is classed as functional, Betapolyomavirus macacae.
A further test has as its target Prothrombin (Bos taurus, UniProt P00735). Nature of the test: thrombin protease inhibitors – biochemical, fluorescence polarization, uHTS hits, dose response (AID 602369). The class given is functional.
Test [7] has as its target 26S proteasome non-ATPase regulatory subunit 14 (Homo sapiens, UniProt O00487). Briefly: inhibition of proteasome subunit RPN11 – biochemical, fluorescence polarization, uHTS hits, confirmation (AID 602368). The class given is functional.
Test [8] addresses T5, Apoptotic protease-activating factor 1 (Homo sapiens, UniProt O14727).
T5 sequence (O14727 whole entry): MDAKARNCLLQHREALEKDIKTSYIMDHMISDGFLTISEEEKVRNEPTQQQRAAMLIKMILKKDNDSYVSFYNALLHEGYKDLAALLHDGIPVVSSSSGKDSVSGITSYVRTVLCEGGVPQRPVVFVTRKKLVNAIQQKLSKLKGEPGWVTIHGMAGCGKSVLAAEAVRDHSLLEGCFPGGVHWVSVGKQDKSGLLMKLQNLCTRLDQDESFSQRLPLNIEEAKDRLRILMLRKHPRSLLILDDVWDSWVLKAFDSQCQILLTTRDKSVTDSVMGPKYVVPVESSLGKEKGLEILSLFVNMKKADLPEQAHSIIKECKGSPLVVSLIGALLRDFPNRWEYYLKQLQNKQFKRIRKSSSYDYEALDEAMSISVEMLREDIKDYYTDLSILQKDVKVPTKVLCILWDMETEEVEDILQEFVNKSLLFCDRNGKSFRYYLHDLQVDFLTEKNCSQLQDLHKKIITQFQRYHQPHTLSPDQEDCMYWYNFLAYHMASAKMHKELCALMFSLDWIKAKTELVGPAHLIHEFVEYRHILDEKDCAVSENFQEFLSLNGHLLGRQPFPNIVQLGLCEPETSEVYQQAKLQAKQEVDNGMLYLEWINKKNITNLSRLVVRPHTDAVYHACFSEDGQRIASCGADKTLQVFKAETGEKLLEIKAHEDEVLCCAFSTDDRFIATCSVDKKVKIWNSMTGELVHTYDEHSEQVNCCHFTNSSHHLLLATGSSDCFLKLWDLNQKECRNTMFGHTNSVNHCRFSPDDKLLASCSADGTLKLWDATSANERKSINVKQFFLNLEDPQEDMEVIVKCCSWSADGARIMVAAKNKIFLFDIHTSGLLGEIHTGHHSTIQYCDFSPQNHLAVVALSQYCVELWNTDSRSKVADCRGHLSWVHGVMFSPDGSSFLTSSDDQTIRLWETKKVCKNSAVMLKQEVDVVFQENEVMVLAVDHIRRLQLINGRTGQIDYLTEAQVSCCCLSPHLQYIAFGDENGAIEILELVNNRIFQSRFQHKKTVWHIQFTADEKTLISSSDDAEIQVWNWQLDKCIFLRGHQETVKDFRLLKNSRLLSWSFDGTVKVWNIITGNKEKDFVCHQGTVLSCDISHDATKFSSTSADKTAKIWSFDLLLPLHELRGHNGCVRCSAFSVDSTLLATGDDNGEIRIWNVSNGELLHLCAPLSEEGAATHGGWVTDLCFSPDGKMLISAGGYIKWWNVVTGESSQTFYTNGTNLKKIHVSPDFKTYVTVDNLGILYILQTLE
The class given is functional.

A short description of test [9]: blockers of CRF-binding protein–CRF-R2 complex – cell-based, uHTS hits, 384-well, dose response (AID 651639). The class given is functional, Homo sapiens. As to conditions: read-out: IC50_Mean.
Test [10] concerns the target T4, Corticotropin-releasing factor receptor 2/Corticotropin-releasing factor-binding protein. Nature of the test: Dose Response confirmation of uHTS hits for small molecule antagonists of the CRF-binding protein and CRF-R2 receptor complex. The class given is functional. As to conditions: read-out: IC50_Mean.
Test [11] in a line: microbe, parasite or virus in culture. The test is classed as functional. The following applies: Mycobacterium tuberculosis.
The nature of test [12]: viability of uninfected HEp-2 cells – cell-based, HTS, cytotoxicity control for RSV inhibitor project, dose response (AID 2410). The class given is functional. As to conditions: human respiratory syncytial virus.
The nature of test [13]: Trypanosoma cruzi growth suppression in host cells – NIH3T3 host cells, beta-gal luminescence, confirmation (AID 2044).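 Further: intracellular parasites grown in NIH/3T3 mouse fibroblasts as host cells; luminescent beta-galactosidase reporter signal from transgenic T. cruzi replicating inside host cells; inhibitors lower the luminescence signal.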 The test is classed as functional, cell-based.
The nature of test [14]: NIH3T3 cell viability loss – ATP luminescence, mouse fibroblasts, counter-screen, dose response (AID 2010).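 Further: cells exposed to compound for about 90 hours before reading.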 The class given is functional, cell-based.
The next test has as its target T6, Estrogen receptor (Homo sapiens, UniProt P03372).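 Further: potency for inhibiting coactivator peptide recruitment to the receptor.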
T6 sequence (P03372 whole entry): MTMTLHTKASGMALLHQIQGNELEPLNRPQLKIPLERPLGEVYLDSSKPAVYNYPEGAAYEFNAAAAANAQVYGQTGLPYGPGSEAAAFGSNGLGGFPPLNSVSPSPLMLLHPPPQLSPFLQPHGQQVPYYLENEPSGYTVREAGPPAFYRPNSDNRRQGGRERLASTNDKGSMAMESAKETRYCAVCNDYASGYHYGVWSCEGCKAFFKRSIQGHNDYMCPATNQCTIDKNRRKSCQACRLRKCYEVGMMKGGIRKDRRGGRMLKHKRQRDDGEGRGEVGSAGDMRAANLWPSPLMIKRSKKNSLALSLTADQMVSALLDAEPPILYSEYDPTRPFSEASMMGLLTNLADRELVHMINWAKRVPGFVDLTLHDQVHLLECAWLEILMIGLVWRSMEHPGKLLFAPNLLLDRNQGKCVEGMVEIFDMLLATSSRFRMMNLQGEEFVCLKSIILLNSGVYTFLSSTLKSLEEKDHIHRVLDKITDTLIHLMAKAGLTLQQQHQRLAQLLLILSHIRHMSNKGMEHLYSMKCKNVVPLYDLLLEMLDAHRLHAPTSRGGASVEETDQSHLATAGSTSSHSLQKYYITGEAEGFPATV

Test [15] concerns the target Heat shock protein HSP 90-alpha (Homo sapiens, UniProt P07900). The class given is functional, organism-based.

The source made the active and inactive calls.

One may read the AC50 as the midpoint of the concentration-response curve, whichever way the signal moves.

Chain of 26S proteasome non-ATPase regulatory subunit 14 (O00487 whole entry): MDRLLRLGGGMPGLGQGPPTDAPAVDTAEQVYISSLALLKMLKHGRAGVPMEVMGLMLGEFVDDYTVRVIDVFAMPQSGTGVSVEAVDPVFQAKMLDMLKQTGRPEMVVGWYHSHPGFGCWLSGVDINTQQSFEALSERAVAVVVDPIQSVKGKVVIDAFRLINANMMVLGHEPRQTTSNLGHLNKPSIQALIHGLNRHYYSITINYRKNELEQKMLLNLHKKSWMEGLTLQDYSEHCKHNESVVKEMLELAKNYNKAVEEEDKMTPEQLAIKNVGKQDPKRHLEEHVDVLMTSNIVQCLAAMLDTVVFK
Chain of Large T antigen (P03070 whole entry): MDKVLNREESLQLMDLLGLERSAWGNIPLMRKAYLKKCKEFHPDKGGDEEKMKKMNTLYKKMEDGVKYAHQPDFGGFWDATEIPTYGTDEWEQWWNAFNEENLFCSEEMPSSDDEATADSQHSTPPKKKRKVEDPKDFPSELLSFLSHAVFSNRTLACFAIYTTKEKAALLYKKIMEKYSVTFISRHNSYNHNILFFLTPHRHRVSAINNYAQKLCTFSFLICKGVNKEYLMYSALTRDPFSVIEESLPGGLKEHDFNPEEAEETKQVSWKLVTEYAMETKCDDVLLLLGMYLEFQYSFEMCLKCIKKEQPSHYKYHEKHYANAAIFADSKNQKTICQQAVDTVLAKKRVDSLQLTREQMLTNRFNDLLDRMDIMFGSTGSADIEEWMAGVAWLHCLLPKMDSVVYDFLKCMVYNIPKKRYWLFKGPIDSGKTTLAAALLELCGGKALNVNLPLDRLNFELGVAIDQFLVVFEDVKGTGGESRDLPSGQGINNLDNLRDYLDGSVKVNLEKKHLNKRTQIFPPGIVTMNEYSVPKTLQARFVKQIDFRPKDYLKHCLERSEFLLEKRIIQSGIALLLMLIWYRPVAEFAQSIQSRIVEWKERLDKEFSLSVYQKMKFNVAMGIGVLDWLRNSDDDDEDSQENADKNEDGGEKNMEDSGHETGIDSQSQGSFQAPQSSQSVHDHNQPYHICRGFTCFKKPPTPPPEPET

For the compound `Oc1[nH]c2ccccc2c1N=Nc1ccccc1`, the EC50 was 18.3 µM (inconclusive) in test [1], 54.6 µM (inactive) in [2], > 99 µM (inactive) in [3] and 7.37 µM (inconclusive) in test [4].

As to `Nc1c(C(=O)Nc2nccs2)sc2nc(-c3cccs3)cc(C(F)(F)F)c12`, the EC50 was 2.76 µM (active) in test [5], > 99 µM (inactive) in test [2] and > 99 µM (inactive) in test [3].

As to `N#C/C(=C\c1ccc(O)c(O)c1)C(=O)N1CCc2ccccc21`, the IC50 is > 100 µM (inactive) in [6], 11.9 µM (active) on Large T antigen, 45.9 µM (active) at Prothrombin and 0.798 µM (active) in test [7].

On to `CN(CC(=O)Nc1ccc(Cl)c(C(F)(F)F)c1)C(=O)CC1Sc2ccccc2NC1=O` (stereo unspecified), for which the IC50 in test [8] is 33.6 µM (active).

As to `COC(=O)C(NC(=O)c1ccc(OC)cc1)(Nc1ncc(S(=O)(=O)c2ccc([N+](=O)[O-])cc2)s1)C(F)(F)F` (stereo unspecified), the IC50 is 2.58 µM (active) in [9] and < 0.368 µM (active) in [10]. The CC50 is > 40 µM (active) in test [11] and 13.4 µM (active) in test [12]. Also, the EC50 in test [5] is > 53 µM (inactive).

For the compound `COc1ccc2c(c1)Cc1sc(NC(=O)c3cccs3)nc1-2`, the EC50 in [13] was 2.01 µM (active); in test [14], > 60 µM (not active). The IC50 in test [8] is 28.7 µM (active).

As to `Brc1ccccc1-c1nnc(CSc2nnnn2-c2ccccc2)o1`, the results for the IC50 (at Estrogen receptor; in test [9]; in test [10]) were > 50 µM (not active), 1.36 µM (active) and 8.93 µM (active), respectively. Also, in [5], the EC50 is > 53 µM (inactive).

Regarding `NC(=O)CC(NC(=O)Cc1ccc(Cl)cc1)c1ccc(NC2CCCC2)c([N+](=O)[O-])c1` (stereo unspecified), the IC50 was > 100 µM (inactive) in test [6], 38.8 µM (active) on Prothrombin and 29.9 µM (active) in test [7].

`CCOC(=O)c1ccc(N2C(=O)CC(N3CCC(O)(c4ccc(Cl)cc4)CC3)C2=O)cc1` (stereo unspecified): in test [15], the AC50 is 2.97 µM (active).

Take `CCOC(=O)c1c(NC(=O)c2c(Br)cnn2C)c(C#N)nn1-c1ccccc1`: the IC50 in test [9] is 18.4 µM (active); in [10], 43.9 µM (active). Besides, in test [5], the EC50 was > 53 µM (inactive).

Take `COc1ccc(N2CCN(C(=O)c3ccc(Br)cc3)CC2)c([N+](=O)[O-])c1`: the AC50 in [15] was 0.691 µM (active).

As to `O=C(COC(=O)c1cnc(Cl)c(Cl)c1)NCCC1=CCCCC1`, the values for the IC50 in test [9] and in test [10] were 7.15 µM (active) and 7.16 µM (active), respectively. The EC50 in test [5] was > 53 µM (inactive).

Take `O=[N+]([O-])c1ccc([S+]([O-])Cc2ccccc2)c([N+](=O)[O-])c1` (stereo unspecified): in test [15], the AC50 was 2.17 µM (active).

These data come from ChEMBL document CHEMBL1201862, “PubChem BioAssay data set” (2004).
